# Experimental data published in patent US5922681A, “Endothelin antagonists” (Warner-Lambert Company, priority 1992, dated 1999).
# Non-standard residues stand in square brackets, D forms with d. Residues, ends and D or L forms follow the SMILES beside them. No end group written: not given here.
# Tests used:
# [1] = tested on: vasoconstriction of the basilar artery; conditions: canine subarachnoid hemorrhage, intracisternal 0.1 mg; cited from earlier work
# ET-1-induced arrythmia = conditions: rats; cited from earlier work
# [2] = tested on: ET-1-induced vasoconstriction; conditions: isolated rabbit aorta; cited from earlier work
# pressor response to ET-1 = conditions: IV bolus 1 mg/kg; cited from earlier work
# [3] = tested on: ET-1-induced vasoconstriction; conditions: isolated porcine coronary arteries; cited from earlier work
# ETB = conditions: isolated, endothelium-intact porcine pulmonary arteries; cited from earlier work
# ET receptor = conditions: cited from earlier work
# [4] = tested on: endothelin-stimulated constriction in the rabbit femoral renal (ETA), and pulmonary arteries (ETB); conditions: cited from earlier work
# [5] = tested on: endothelin-induced arachidonic acid release in vascular smooth muscle cells (ETA); conditions: cited from earlier work
# [6] = tested on: ETA receptor over the ETB subtype; conditions: cited from earlier work
# [7] = biological target: endothelin receptor (Human Placenta); assay: [125I]-ET-1 receptor binding, Human Placenta
# Description: (§1) The compounds of Formula I are valuable antagonists of endothelin. […] Compounds of Formula I were tested for their ability to inhibit [^125 I]-ET-1([^125 I]-Endothelin-1) binding in a receptor assay according to the following procedures Doherty, A. M., et al, J. Cardiovascul. Pharmacol. 17(Suppl 7):S59-61 (1991) and Doherty, A. M., et al, Bio. Org.
# [8] = biological target: endothelin receptor (Rat Heart); assay: [125I]-ET-1 receptor binding, Rat Heart
# Description: as §1
# [9] = tested on: endothelin-stimulated arachidonic acid release in cultured vascular smooth muscle cells; assay: AAR assay for antagonist activity; type: cell-based, rabbit; conditions: ET-1 0.3 nM
# Description: AAR Assay for Antagonist Activity
# Antagonist activity is measured by the ability of added compounds to reduce endothelin-stimulated arachidonic acid release in cultured vascular smooth muscle cells as arachidonic acid release (AAR). [^3 H] Arachidonic Acid Loading Media (LM) is DME/F12+0.5% FCS×0.25 mCi/mL [^3 H] arachidonic acid (Amersham). Confluent monolayers of cultured rabbit renal artery vascular smooth muscle cells were incubated in 0.5 mL of the LM over 18 hours, at 37° C., in 5% CO2. The LM was aspirated and the cells were washed once with the assay buffer (Hank's BSS+10 mM HEPES+fatty acid-free BSA (1 mg/mL), and incubated for 5 minutes with 1 mL of the prewarmed assay buffer. This solution was aspirated, followed by an additional 1 mL of prewarmed assay buffer, and further incubated for another 5 minutes. A final 5-minute incubation was carried out in a similar manner. […] This solution was then collected, […] of scintillation cocktail was added, and the amount of [^3 H] arachidonic acid was determined in a liquid scintillation counter.
compound,measurement,setting,value
FR 139317,Vasoconstriction of the basilar artery after 7 days,[1],significantly inhibited
same,ET-1-induced arrythmia,ET-1-induced arrythmia,suppressed
same,"pA2, inhibition of ET-1-induced vasoconstriction",[2],7.2
same,Initial depressor response to ET-1,pressor response to ET-1,no effect
same,Pressor response to ET-1,pressor response to ET-1,completely inhibited
CC(C)C[C@@H]1NC(=O)[C@@H](C(C)C)NC(=O)[C@@H]2CCCN2C(=O)[C@@H](CC(=O)O)NC(=O)[C@@H](Cc2c[nH]c3ccccc23)NC1=O [BQ-123] (cyclo(L[dW][dD]P[dV])),Antagonism of ET-1-induced vasoconstriction,[3],antagonize
"ET[1,3,11,15-Ala]: linear ET analog, reported selective ETB agonist (ASASSLMDKEAVYFAHLDIIW; Endothelin-1; UniProt P05305 53-73, looked up, variant C1A C3A C11A C15A)",Vasorelaxation,ETB,caused vasorelaxation
"ET[1-20]: ET-1 lacking the C-terminal amino acid (Trp-21) (CSCSSLMDKECVYFCHLDII; ends and bridges not checked; cysteine pairing not given here; UniProt P05305 53-72, looked up, fragment)","Functional / vasoconstrictor activity, fold less",ET receptor,approximately 1000 fold
Ac-(β-phenyl)D-Phe-L-Leu-L-Asp-L-lle-L-lle-L-Trp trifluoroacetate [PD 142893],Antagonism of endothelin-stimulated constriction,[4],antagonizes
same,Antagonism of endothelin-induced arachidonic acid release,[5],functional antagonist
same,Binding selectivity for the ETA receptor over the ETB subtype,[6],tenfold
"ET[6-21, 1,3,11,15-Ala]",Vasorelaxation,ETB,caused vasorelaxation
"C[C@@](Cc1c[nH]c2ccccc12)(NC(=O)OC1C2CC3CC(C2)CC1C3)C(=O)N[C@H](CC(=O)O)Cc1ccccc1 (relative stereo) [Compound 4, [S-(R*,R*)]-β-[[3-(1H-indol-3-yl)-2-methyl-1-oxo-2-[[(tricyclo[3.3.1.1^3,7]dec-2-yloxy)carbonyl]-amino]propyl]amino]benzenebutanoic acid]",IC50,[7],58.3 µM
same,IC50,[8],47.3 µM
same,AAR IC50 (μM) (Antag) % inhib at 10 μM,[9],62.4%
"N-acetyl-ET[10-21]: truncated ET analog, reported selective ETB agonist (Ac-ECVYFCHLDIIW; cysteine pairing not given here; UniProt P05305 62-73, looked up, fragment)",Vasorelaxation,ETB,caused vasorelaxation
